Patent US9963432B2, “Beta-amino-isoquinolinyl amide compounds” (Aerie Pharmaceuticals, Inc., priority 2016, dated 2018)
Where two headings read alike, the source gives them in different places. Each block holds one molecule with its values, some of them ahead of it.

How the values were obtained:
ROCK2 = ROCK2 (Homo sapiens, UniProt O75116); experiment: ROCK Kinase Assay (Kinase-Glo luminescent); format: biochemical
Experimental: All compounds were initially prepared as 10 mM stocks in anhydrous dimethylsulfoxide (DMSO). […] Test compounds were then serially diluted 1:3 in DMSO for a 10-point concentration response and further diluted in the assay buffer bringing all compound concentrations to 4× final concentration in 10% DMSO. […] A 10 μL aliquot of compound from each well of the intermediate dilution plate and 10 μL of a 4× stock solution containing ATP (5 μM) and acceptor substrate (20 μM RSK2 peptide […]) were added to all wells. […] Reactions were thoroughly mixed manually, covered and allowed to incubate at room temperature for 180 min. Protein kinase activity was quantitated using Promega's Kinase-Glo™ luminescent Kinase Assay Kit according to the manufacturer's directions. ATP concentrations remaining in Test wells following the termination of the enzymatic reaction were compared against control wells containing equivalent amounts of DMSO containing no inhibitor (CTRL). […] Percent of Control (POC) values were determined for each concentration of compound tested according to the equation: POC=((Test well value−BKG)/(CTRL−BKG))*100
IC50 values were calculated using the following 4-parameter logistic curve-fitting algorithm: f(x)=(A+((B−A)/(1+((x/C)^D))))
IC50 values were converted to Ki values using the Cheng-Prusoff Equation: Ki=IC50/(1+([ATP]/Km ATP])).

[1] = tested on: Immortalized Human Trabecular Meshwork cells (TM-1); experiment: PTM-HTM Assay: human trabecular meshwork cells, focal adhesions; format: cell-based; conditions: TM1, TM-1 cells, anti-paxillin stain, total area of focal adhesions, percent of control
Experimental: (§1) Porcine Trabecular Meshwork cells (PTM) were isolated from freshly obtained enucleated porcine eyes following a procedure by Rao et al.^1 Immortalized Human Trabecular Meshwork cells (TM-1) were obtained through a kind gift from Donna Peters in the Department of Ophthalmology and Visual Sciences at the University of Wisconsin. Cells were plated onto fibronectin coated glass-bottom 96-well plates and allowed to attach overnight. Media was removed and replaced with test compound in media with 1% fetal bovine serum and incubated for various times. After incubation, cells were formaldehyde fixed, triton solubilized, and stained. PTM cells were stained with Alexa Fluor®488 phalloidin (F-actin) and Hoechst 33342 (nuclei). TM-1 cells were stained with anti-paxillin followed by Alexa Fluor®488 goat-anti-mouse IgG (focal adhesions) and Hoechst 33342 (nuclei). All staining reagents were obtained through Invitrogen. Images were collected on an INCell 2200 imager with a 20× objective. The actin fiber length and total area of focal adhesions were analyzed using custom algorithms developed in the INCell Developer Toolbox, v1.9.3. Data collected were converted to percent of control (untreated cells). Curves were fit to data in GraphPad Prizm4 using sigmoidal dose-response and constraining top and bottom to 100% and 0%, respectively.

[2] = tested on: Porcine Trabecular Meshwork cells (PTM); experiment: PTM-HTM Assay: porcine trabecular meshwork cells, actin fibers; format: cell-based; conditions: Sus scrofa, phalloidin stain, actin fiber length, percent of control
Experimental: as §1

[3] = IC50 converted to Ki by Cheng-Prusoff, ATP 5 μM, ROCK2 1 nM, 180 min, read-out: ROCK2 Ki

Chain of ROCK2 (O75116 whole entry, species assumed): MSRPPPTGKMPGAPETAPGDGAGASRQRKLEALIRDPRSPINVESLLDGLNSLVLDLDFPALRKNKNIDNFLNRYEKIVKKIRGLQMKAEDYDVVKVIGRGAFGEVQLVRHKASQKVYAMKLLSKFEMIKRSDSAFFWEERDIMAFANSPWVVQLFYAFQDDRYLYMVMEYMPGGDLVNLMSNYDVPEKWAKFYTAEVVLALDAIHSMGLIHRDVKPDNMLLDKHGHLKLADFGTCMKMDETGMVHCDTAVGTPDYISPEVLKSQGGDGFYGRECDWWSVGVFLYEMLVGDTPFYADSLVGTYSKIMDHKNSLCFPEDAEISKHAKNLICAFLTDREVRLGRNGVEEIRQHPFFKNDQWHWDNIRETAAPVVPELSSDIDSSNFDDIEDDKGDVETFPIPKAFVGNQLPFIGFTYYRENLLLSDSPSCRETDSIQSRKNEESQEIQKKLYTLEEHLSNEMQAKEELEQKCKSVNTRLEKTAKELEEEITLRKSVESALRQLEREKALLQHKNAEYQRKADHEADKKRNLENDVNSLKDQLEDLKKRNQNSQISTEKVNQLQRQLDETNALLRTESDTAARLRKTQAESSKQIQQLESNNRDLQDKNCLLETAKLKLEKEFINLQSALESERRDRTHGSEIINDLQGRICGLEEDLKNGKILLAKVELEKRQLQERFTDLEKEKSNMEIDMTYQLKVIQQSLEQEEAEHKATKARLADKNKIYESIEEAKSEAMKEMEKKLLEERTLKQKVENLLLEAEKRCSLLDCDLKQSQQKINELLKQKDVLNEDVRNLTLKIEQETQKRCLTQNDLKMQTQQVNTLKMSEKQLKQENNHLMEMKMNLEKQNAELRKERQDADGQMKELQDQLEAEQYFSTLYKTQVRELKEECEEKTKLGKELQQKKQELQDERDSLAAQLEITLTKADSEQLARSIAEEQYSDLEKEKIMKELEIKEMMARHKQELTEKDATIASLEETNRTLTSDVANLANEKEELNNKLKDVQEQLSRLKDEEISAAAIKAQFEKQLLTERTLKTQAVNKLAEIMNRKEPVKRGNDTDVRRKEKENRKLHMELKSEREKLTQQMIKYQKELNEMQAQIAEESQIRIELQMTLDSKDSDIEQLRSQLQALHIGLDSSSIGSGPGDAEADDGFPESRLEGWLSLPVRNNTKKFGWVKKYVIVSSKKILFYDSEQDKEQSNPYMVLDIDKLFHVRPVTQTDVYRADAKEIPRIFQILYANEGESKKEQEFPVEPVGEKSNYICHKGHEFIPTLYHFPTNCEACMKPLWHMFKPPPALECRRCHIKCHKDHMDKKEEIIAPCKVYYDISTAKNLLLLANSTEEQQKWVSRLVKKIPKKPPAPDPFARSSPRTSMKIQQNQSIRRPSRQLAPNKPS

SMILES: NCC(C(=O)Nc1ccc2cnccc2c1)c1ccccc1 (centres unmarked) [Compound 2]
Ki (ROCK2; [3]): 0.8 nM

SMILES: NCC(C(=O)Nc1ccc2c(O)nccc2c1)c1ccccc1 (centres unmarked) [Compound 5]
Ki (ROCK2; [3]): 2.2 nM
IC50 [1]: 266 nM
IC50 [2]: 45 nM

SMILES: Cc1cccc(C(CN)C(=O)Nc2ccc3cnccc3c2)c1 (centres unmarked) [Compound 14]
Ki (ROCK2; [3]): 3.3 nM
IC50 [1]: 324 nM
IC50 [2]: 511 nM

SMILES: NC[C@@H](C(=O)Nc1ccc2cnccc2c1)c1ccccc1 [3 (S)]
Ki (ROCK2; [3]): 0.4 nM
IC50 [1]: 41 nM

SMILES: NCC(C(=O)Nc1ccc2cnccc2c1)c1cccc(CO)c1 (centres unmarked) [Compound 23]
Ki (ROCK2; [3]): 3 nM
IC50 [1]: 248 nM
IC50 [2]: 1380 nM

SMILES: NCC(C(=O)Nc1ccc2cnccc2c1)c1ccc(CO)cc1 (centres unmarked) [Compound 24]
Ki (ROCK2): 0.7 nM

SMILES: COc1cccc(C(CN)C(=O)Nc2ccc3cnccc3c2)c1 (centres unmarked) [Compound 19]
Ki (ROCK2; [3]): 2 nM
IC50 [1]: 214 nM
IC50 [2]: 448 nM

SMILES: NCC(C(=O)Nc1ccc2cnccc2c1)c1ccc(O)c(O)c1 (centres unmarked) [Compound 18]
Ki (ROCK2; [3]): 5.5 nM
IC50 [1]: 11000 nM
IC50 [2]: 5150 nM

SMILES: NCC(C(=O)Nc1ccc2cnccc2c1)c1cccc(C(F)(F)F)c1 (centres unmarked) [Compound 21]
Ki (ROCK2; [3]): 2.7 nM
IC50 [1]: 475 nM
IC50 [2]: 596 nM

SMILES: NC[C@H](C(=O)Nc1ccc2cnccc2c1)c1ccccc1 [4 (R)]
Ki (ROCK2; [3]): 16 nM

More lines, main results first:

Ki (ROCK2; [3]): 0.6 nM
IC50 [2]: 1020 nM
SMILES: NCC(C(=O)Nc1ccc2cnccc2c1)c1ccc(O)cc1 (centres unmarked) [Compound 17]
IC50 [1]: 193 nM

Ki (ROCK2; [3]): 1.3 nM
IC50 [2]: 459 nM
SMILES: NCC(C(=O)Nc1ccc2cnccc2c1)c1cccc(O)c1 (centres unmarked) [Compound 16]
IC50 [1]: 1720 nM

Ki (ROCK2; [3]): 1 nM
IC50 [2]: 175 nM
SMILES: NCC(C(=O)Nc1ccc2cnccc2c1)c1ccc(F)cc1 (centres unmarked) [Compound 8]
IC50 [1]: 102 nM

Ki (ROCK2; [3]): 0.4 nM
IC50 [2]: 129 nM
SMILES: NCC(C(=O)Nc1ccc2cnccc2c1)c1ccc(Cl)cc1 (centres unmarked) [Compound 11]
IC50 [1]: 64 nM

Ki (ROCK2; [3]): 1 nM
IC50 [2]: 260 nM
SMILES: NCC(C(=O)Nc1ccc2cnccc2c1)c1ccccc1F (centres unmarked) [Compound 6]
IC50 [1]: 139 nM

Ki (ROCK2; [3]): 1.3 nM
IC50 [2]: 245 nM
SMILES: NCC(C(=O)Nc1ccc2cnccc2c1)c1ccccc1Cl (centres unmarked) [Compound 9]
IC50 [1]: 192 nM

Ki (ROCK2; [3]): 0.8 nM
IC50 [2]: 214 nM
SMILES: NCC(C(=O)Nc1ccc2cnccc2c1)c1ccc(Cl)cc1Cl (centres unmarked) [Compound 12]
IC50 [1]: 208 nM

Ki (ROCK2; [3]): 0.9 nM
IC50 [2]: 455 nM
SMILES: NCC(C(=O)Nc1ccc2cnccc2c1)c1cccc(Cl)c1 (centres unmarked) [Compound 10]
IC50 [1]: 383 nM

Ki (ROCK2; [3]): 1.8 nM
IC50 [2]: 152 nM
SMILES: NCC(C(=O)Nc1ccc2cnccc2c1)c1ccc(C(F)(F)F)cc1 (centres unmarked) [Compound 22]
IC50 [1]: 493 nM

Ki (ROCK2; [3]): 1 nM
IC50 [2]: 200 nM
SMILES: Cc1ccccc1C(CN)C(=O)Nc1ccc2cnccc2c1 (centres unmarked) [Compound 13]
IC50 [1]: 90 nM

Ki (ROCK2; [3]): 1 nM
IC50 [2]: 298 nM
SMILES: NCC(C(=O)Nc1ccc2cnccc2c1)c1cccc(F)c1 (centres unmarked) [Compound 7]
IC50 [1]: 201 nM

Ki (ROCK2; [3]): 0.4 nM
IC50 [2]: 84 nM
SMILES: Cc1ccc(C(CN)C(=O)Nc2ccc3cnccc3c2)cc1 (centres unmarked) [Compound 15]
IC50 [1]: 39 nM

Ki (ROCK2; [3]): 1.3 nM
IC50 [2]: 670 nM
SMILES: COc1ccc(C(CN)C(=O)Nc2ccc3cnccc3c2)cc1 (centres unmarked) [Compound 20]
IC50 [1]: 111 nM
